Results as given in patent US12115209B2, “ROMO1-derived antimicrobial peptides including lysine substitution and variants thereof” (KOREA UNIVERSITY RESEARCH AND BUSINESS FOUNDATION, priority 2019, dated 2024).
No end group written: not given here.

B1: MPVAVGPYGQSQPSCFDRVKMGFVMGCAVGMAAGALFGTFSCLRIGMRGRELMGGIGKTMMQSGGTFGTFMAIGMGIRC (protein)
chain: MPVAVGPYGQSQPSCFDRVKMGFVMGCAVGMAAGALFGTFSCLRIGMRGRELMGGIGKTMMQSGGTFGTFMAIGMGIRC
modifications: Homo sapiens Romo1

How the values were obtained:
Assay in all cases: Minimum bactericidal concentration (MBC) assay
Assay type in all cases: cell-based
[1] = test system: Methicillin-resistant Staphylococcus aureus (MRSA, ATCC 33591); conditions: Tables 11-21, no unit printed
Method: First, each of Pseudomonas aeruginosa (ATCC 27853) and Staphylococcus aureus (ATCC 29213) was cultured in 3% (w/v) TSB (tryptic soy broth) liquid medium at 37° C. and 200 rpm for 4 hours, and then further cultured under the same conditions for 3 hours to a concentration of 5×10^6 CFU/ml. Strain solutions were prepared by diluting each of the further cultured strains with SP (sodium phosphate; 10 mM sodium phosphate, 1% TSB) buffer to a final concentration of 2×10^5 CFU/ml. […]
(§1) In addition, 30 g/L of TS (tryptic soy) and 15 g/L of agar were dissolved in distilled water and sterilized, and then 25 ml of the solution was poured onto a 100 mm round plate and solidified at room temperature for one day or more, thereby preparing a TS agar plate. 10 μl of each reaction solution of the peptide and the strain was plated on the TS agar plate at a constant size, and incubated in an incubator at 37° C. for 18 hours, and then colony formation on the plate was checked.
Specifically, each type of bacteria was cultured in 3% (w/v) TSB (tryptic soy broth) liquid medium at 37° C. and 200 rpm for 4 hours, and then further cultured under the same conditions for 3 hours to a concentration of 5×10^6 CFU/ml. Strain solutions were prepared by diluting each of the further cultured strains with SP buffer to a final concentration of 2×10^5 CFU/ml.
(§2) Then, the KU-5878 peptide at varying concentrations (0 μg/ml to 300 μg/ml) was dispensed into each well of a 96-well microplate, and 100 μl (1×10^5 CFU/ml) of each of the prepared strain solutions was added thereto, mixed therewith, and allowed to react with the peptide in an incubator at 37° C. for 1 hour.
In addition, 10 μl of each reaction solution of the peptide and the strain was plated on the TS agar plate at a constant size, and incubated in an incubator at 37° C. for 18 hours, and then colony formation on the plate was checked.

[2] = test system: Staphylococcus aureus (ATCC 29213); conditions: for MBC Staphylococcus aureus: Tables 11-21, no unit printed
Method: (§3) First, each of Pseudomonas aeruginosa (ATCC 27853) and Staphylococcus aureus (ATCC 29213) was cultured in 3% (w/v) TSB (tryptic soy broth) liquid medium at 37° C. and 200 rpm for 4 hours, and then further cultured under the same conditions for 3 hours to a concentration of 5×10^6 CFU/ml. Strain solutions were prepared by diluting each of the further cultured strains with SP (sodium phosphate; 10 mM sodium phosphate, 1% TSB) buffer to a final concentration of 2×10^5 CFU/ml.
as §2, with “each” for “the KU-5878”
as §1, with “checked. The minimum bactericidal concentration was defined as the minimum concentration of the peptide at which no colony was formed, and the experimental results are shown in Table 1 below.” for “checked.”

CRPA = conditions: Tables 11-21, no unit printed
[3] = test system: Pseudomonas aeruginosa (ATCC 27853); conditions: for MBC Pseudomonas aeruginosa: Tables 11-21, no unit printed
Method: as §3
as §2, with “each” for “the KU-5878”
as §1, with “checked. The minimum bactericidal concentration was defined as the minimum concentration of the peptide at which no colony was formed, and the experimental results are shown in Table 1 below.” for “checked.”

| Molecule | MBC MRSA [1] | MBC Staphylococcus aureus [2] | MBC CRPA (CRPA) | MBC Pseudomonas aeruginosa [3] | MBC value (μg/ml) against Staphylococcus aureus ([2]; ATCC 29213, reaction 37° C. 1 hour, no bovine serum) | MBC value (μg/ml) against Pseudomonas aeruginosa ([3]; ATCC 27853, reaction 37° C. 1 hour, no bovine serum) |
| --- | --- | --- | --- | --- | --- | --- |
| -KMMKKGGKFGTFMAIG-GIR [Peptide K4-d58K-d75M] | 180 µg/mL | 150 µg/mL | 160 µg/mL | 150 µg/mL |  |  |
| -TMMQSGGTFGTFMAIGMGIR [Peptide 5878-d58K] | > 300 µg/mL | 300 µg/mL | 300 µg/mL | 300 µg/mL |  |  |
| ATMMQSGGTFGTFMAIGMGIR [KU-5878-K58A] | > 300 µg/mL | > 300 µg/mL | > 300 µg/mL | > 300 µg/mL |  |  |
| K-MMQSGGTFGTFMAIGMGIR [Peptide 5878-d59T] | 150 µg/mL | 150 µg/mL | 150 µg/mL | 150 µg/mL |  |  |
| KAMMQSGGTFGTFMAIGMGIR [KU-5878-T59A] | 140 µg/mL | 120 µg/mL | 130 µg/mL | 150 µg/mL |  |  |
| KK-MKKGGKFGTFMAIG-GIR [Peptide K4-d60M-d75M] | 210 µg/mL | 200 µg/mL | 200 µg/mL | 200 µg/mL |  |  |
| KKMMKKGGKFGT-MAIGMGIR [5878 K4-d70F] | 110 µg/mL | 140 µg/mL | 160 µg/mL | 100 µg/mL |  |  |
| KKMMKKGGKFGTFM-IG-GIR [Peptide K4-d72A-d75M] | 200 µg/mL | 200 µg/mL | 200 µg/mL | 200 µg/mL |  |  |
| KKMMKKGGKFGTFMA-GMGIR [Peptide 5878-K4-d73I] | > 300 µg/mL | 300 µg/mL | > 300 µg/mL | 300 µg/mL |  |  |
| KRMMQSGGTFGTFMAIGMGIR [KU-5878-T59R] | 30 µg/mL | 25 µg/mL | 30 µg/mL | 30 µg/mL |  |  |
| KSMMQSGGTFGTFMAIGMGIR [KU-5878-T59S] | > 300 µg/mL | > 300 µg/mL | > 300 µg/mL | > 300 µg/mL |  |  |
| KT-MQS-GTFGTF--IG-GIR [5878-d60M, d64G, d71M, d72A, d75M] | 200 µg/mL | 200 µg/mL | 200 µg/mL | 200 µg/mL |  |  |
| KT-MQS-GTFGTFM-IG-GIR [5878-d60M, d64G, d72A, d75M] | 120 µg/mL | 100 µg/mL | 120 µg/mL | 120 µg/mL |  |  |
| KT-MQS-GTFGTFMAIGMGIR [5878-d60M, d64G] | 110 µg/mL | 100 µg/mL | 100 µg/mL | 100 µg/mL |  |  |
| KT-MQSGGTFGTFM-IG-GIR [5878-d60M, d72A, d75M] | 300 µg/mL | 280 µg/mL | 300 µg/mL | 300 µg/mL |  |  |
| KTAMQSGGTFGTFMAIGMGIR [KU-5878-M60A] | > 300 µg/mL | > 300 µg/mL | > 300 µg/mL | > 300 µg/mL |  |  |
| KTMMASGGTFGTFMAIGMGIR [KU-5878-Q62A] | > 300 µg/mL | > 300 µg/mL | > 300 µg/mL | > 300 µg/mL |  |  |
| KTMMKSGGTFGTFMAIGMGIR [KU-5878-Q62K] | 90 µg/mL | 80 µg/mL | 90 µg/mL | 90 µg/mL |  |  |
| KTMMQ-GGTFGTFMAIGMGIR [Peptide 5878-d63S] | 200 µg/mL | 200 µg/mL | 200 µg/mL | 200 µg/mL |  |  |
| KTMMQAGGTFGTFMAIGMGIR [KU-5878-S63A] | > 300 µg/mL | 300 µg/mL | 300 µg/mL | 300 µg/mL |  |  |
| B1 |  |  |  |  | Insoluble | Insoluble |
